Measurements published in PubChem BioAssay (NCI).
Several values for one entry are separate records, joined by “and”; a condition that tells them apart may be missing. Identical values can stand only once.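 Following 48 hours of exposure in 96-well plates, responses at five concentrations were used to interpolate endpoints linearly. GI50: concentration for 50% inhibition of growth. Definition used: TGI = concentration required for complete inhibition of growth.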

How the values were obtained:
Test in all cases: NCI tumour cell line growth inhibition, 48 h
M19-MEL melanoma = tested on: M19-MEL melanoma
COLO 205 colon = tested on: COLO 205 colon
HL-60(TB) leukemia = tested on: HL-60(TB) leukemia
A549 NSCLC = tested on: A549 NSCLC
KM20L2 colon = tested on: KM20L2 colon
LXFL 529 NSCLC = tested on: LXFL 529 NSCLC
DLD-1 colon = tested on: DLD-1 colon
OVCAR-5 ovarian = tested on: OVCAR-5 ovarian
DU-145 prostate = tested on: DU-145 prostate
MDA-MB-435 = tested on: MDA-MB-435

Compound	TGI (M19-MEL melanoma)	TGI (COLO 205 colon)	TGI (HL-60(TB) leukemia)	TGI (A549 NSCLC)	TGI (KM20L2 colon)	TGI (LXFL 529 NSCLC)	TGI (DLD-1 colon)	TGI (OVCAR-5 ovarian)	GI50 (COLO 205 colon)	GI50 (HL-60(TB) leukemia)	GI50 (DU-145 prostate)	TGI (DU-145 prostate)	GI50 (OVCAR-5 ovarian)	GI50 (A549 NSCLC)	GI50 (MDA-MB-435)	TGI (MDA-MB-435)	GI50 (M19-MEL melanoma)	GI50 (LXFL 529 NSCLC)	GI50 (DLD-1 colon)
COc1ccc(/C=C2\CCCC(C(NO)c3ccc(OC)cc3)C2=NO)cc1 (stereo not drawn)	> 100 µM	> 100 µM	43.1 µM	> 100 µM	> 100 µM	> 100 µM	> 100 µM	–	–	–	–	–	–	–	–	–	–	–	–
CCOC(=O)/C=C1\CCCC12OCCO2	> 100 µM	> 100 µM	> 100 µM	> 100 µM	> 100 µM	> 100 µM	> 100 µM	–	–	–	–	–	–	–	–	–	–	–	–
O=[N+]([O-])c1cnn(C2=CNc3ccccc3N=C2)c1	> 100 µM	> 100 µM	> 100 µM	> 100 µM	> 100 µM	–	> 100 µM	> 100 µM	–	–	–	–	–	–	–	–	–	–	–
COC(=O)C(CC(=O)Nc1ccc(C)cc1)C(=O)C(=O)Nc1ccccc1C(C)C (stereo not drawn)	> 100 µM	> 100 µM	> 100 µM	> 100 µM	> 100 µM	> 100 µM	> 100 µM	> 100 µM	–	–	–	–	–	–	–	–	–	–	–
O=C(c1ccncc1)n1nc(-c2ccccc2)c(N=Nc2ccccc2[N+](=O)[O-])c1-c1ccccc1	> 100 µM	> 100 µM	> 100 µM	> 100 µM	–	> 100 µM	> 100 µM	–	–	–	–	–	–	–	–	–	–	–	–
COc1ccc(/C=C\c2cc(OC)c(O[Si](C)(C)C(C)(C)C)c(OC)c2)cc1	> 100 µM	> 100 µM	–	> 100 µM	> 100 µM	> 100 µM	> 100 µM	> 100 µM	–	–	–	–	–	–	–	–	–	–	–
CCC1=NC(CO)[C@H](c2ccccc2)O1 (stereo partly drawn)	> 100 µM	> 100 µM	–	> 100 µM	> 100 µM	–	> 100 µM	> 100 µM	–	–	–	–	–	–	–	–	–	–	–
CC(=O)NC(CCCCNC(=O)NCCCl)C(=O)NCc1ccccc1 (stereo not drawn)	> 100 µM	> 100 µM	> 100 µM	> 100 µM	> 100 µM	> 100 µM	> 100 µM	–	–	–	–	–	–	–	–	–	–	–	–
CN(C)CC1CCC/C1=N\O (stereo not drawn)	> 100 µM	> 100 µM	–	–	> 100 µM	> 100 µM	> 100 µM	> 100 µM	–	–	–	–	–	–	–	–	–	–	–
COC(=O)c1ccccc1NC(=O)C(=O)NNC(=O)c1ccncc1	> 100 µM	> 100 µM	> 100 µM	> 100 µM	> 100 µM	> 100 µM	> 100 µM	–	–	–	–	–	–	–	–	–	–	–	–
OC1(c2ccccc2)OC(C#Cc2ccccc2)(c2ccccc2)c2ccccc21 (stereo not drawn)	11.1 µM	5.38 µM	> 100 µM	14.8 µM	13.6 µM	19.2 µM	11.2 µM	16.8 µM	–	–	–	–	–	–	–	–	–	–	–
CCOc1cc(/C=N\Nc2nnc(C)n2N)c(C)cc1N(CCCl)CCCl	–	1.89 µM	3.82 µM	> 20.6 µM	–	–	–	> 100 µM	0.375 µM	0.351 µM	2.68 µM	> 100 µM	3.05 µM	0.638 µM	0.5 µM	> 39.1 µM	–	–	–
N#CCCN(CCC#N)c1ccc(C(Sc2ccccc2)C(NC(=O)c2cc([N+](=O)[O-])ccc2Cl)C(=O)Sc2ccccc2)cc1 (stereo not drawn)	11.9 µM	6.75 µM and 7.77 µM	3.62 µM and 2.29 µM	6.47 µM and 13.2 µM	6.47 µM and 11.3 µM	11.9 µM	9.43 µM and 4.58 µM	11.7 µM	2.9 µM	0.416 µM	–	–	–	0.954 µM	–	–	2.95 µM	1.63 µM	1.8 µM
Nc1ccccc1C#C/C=C\C#Cc1ccccc1[N+](=O)[O-]	–	22 µM	60.7 µM	21.3 µM	–	–	–	33.6 µM	4.38 µM	1.96 µM	7.86 µM	29.2 µM	17.4 µM	4.42 µM	0.402 µM	14.1 µM	–	–	–
NC(N)=NCCC1OC(=O)C2=C1c1c(O)ccc3nccc(c13)O2 (stereo not drawn)	–	> 100 µM	> 100 µM	> 100 µM	–	–	–	> 100 µM	> 100 µM	> 100 µM	> 100 µM	> 100 µM	> 100 µM	> 100 µM	> 100 µM	> 100 µM	–	–	–
Cc1cccc(C)c1NC(=O)C1C(=O)N(c2c(C)cccc2C)C(=O)/C1=N\NC(N)=S (stereo not drawn)	> 100 µM	–	> 100 µM	> 100 µM	> 100 µM	> 100 µM	> 100 µM	> 100 µM	–	–	–	–	–	–	–	–	–	–	–
COC(=O)C(=O)C(C(=O)C(=O)Nc1cccc(C(C)=O)c1)c1nc2ccccc2[nH]c1=O (stereo not drawn)	> 100 µM	> 100 µM	> 100 µM	> 100 µM	> 100 µM	> 100 µM	> 100 µM	> 100 µM	–	–	–	–	–	–	–	–	–	–	–
Cc1ccc(-c2cc(-c3ccco3)c(C#N)c(=O)n2C2OC(OC(=O)c3ccccc3)C(OC(=O)c3ccccc3)C2OC(=O)c2ccccc2)cc1 (stereo not drawn)	> 100 µM	–	–	> 100 µM	> 100 µM	> 100 µM	> 100 µM	> 100 µM	–	–	–	–	–	–	–	–	–	–	–
COc1ccc(-c2oc3c(OC)c(OC)c(OC)c(OC)c3c(=O)c2OC)cc1OC	–	> 100 µM	46.7 µM	> 100 µM	–	–	–	> 100 µM	–	–	–	> 100 µM	–	–	–	98.7 µM	–	–	–
